Laboratory results published in patent EP2025678A1, “Pyrazolo[3,4-d]pyrimidine compounds and their use as modulators of protein kinase” (Oncalis AG, priority 2007, dated 2009).
pIC50: −log10 of the molar value.

Assays:
human EphB4 [1] = biological target: T1, human EphB4 (Homo sapiens, UniProt P54760); test: in vitro enzymatic kinase assay EphB4 (ADP Hunter assay kit); format: biochemical; conditions: cell-free; ATP 300uM; poly (Glu4-Tyr) 800uM
T1 sequence (P54760 16-987): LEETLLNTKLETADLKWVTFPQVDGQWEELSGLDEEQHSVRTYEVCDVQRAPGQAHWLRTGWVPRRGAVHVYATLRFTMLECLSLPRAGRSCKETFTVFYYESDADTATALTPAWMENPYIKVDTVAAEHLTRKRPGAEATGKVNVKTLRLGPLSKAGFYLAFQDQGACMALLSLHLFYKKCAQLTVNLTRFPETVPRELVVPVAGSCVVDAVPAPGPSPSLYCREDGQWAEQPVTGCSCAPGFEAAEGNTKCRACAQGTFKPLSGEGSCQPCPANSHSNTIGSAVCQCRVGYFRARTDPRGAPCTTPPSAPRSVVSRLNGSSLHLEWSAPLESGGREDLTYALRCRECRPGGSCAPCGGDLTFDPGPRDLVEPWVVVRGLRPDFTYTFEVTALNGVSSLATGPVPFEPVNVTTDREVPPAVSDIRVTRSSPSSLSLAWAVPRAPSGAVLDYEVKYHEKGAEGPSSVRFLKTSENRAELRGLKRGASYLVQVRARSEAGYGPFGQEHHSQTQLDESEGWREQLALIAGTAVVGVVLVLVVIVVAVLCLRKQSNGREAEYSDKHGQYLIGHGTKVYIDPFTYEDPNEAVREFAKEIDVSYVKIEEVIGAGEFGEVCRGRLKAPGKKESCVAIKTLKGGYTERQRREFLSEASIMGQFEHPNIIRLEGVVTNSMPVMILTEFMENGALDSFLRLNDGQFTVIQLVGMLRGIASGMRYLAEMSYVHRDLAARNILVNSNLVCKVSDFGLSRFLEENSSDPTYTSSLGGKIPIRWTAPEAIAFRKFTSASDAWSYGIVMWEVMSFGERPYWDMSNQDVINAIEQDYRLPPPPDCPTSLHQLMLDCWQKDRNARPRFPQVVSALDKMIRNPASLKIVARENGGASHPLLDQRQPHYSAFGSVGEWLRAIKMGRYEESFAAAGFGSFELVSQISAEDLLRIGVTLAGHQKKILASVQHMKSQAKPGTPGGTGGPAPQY
Method: EphB4 inhibition activity of compounds was measured in an in vitro enzymatic kinase assay using the ADP Hunter assay kit (DiscoveRx Corp.), which measures accumulation of ADP produced by the kinase enzyme activity. EphB4 kinase (2ug/mL) is preincubated with different concentrations of compounds for 15 minutes at room temperature in kinase buffer (HEPES 15mM, MgCl2 10mM, EDTA 0.5mM, NaCl 20mM, Tween-20 0.02%, pH 7.4). ATP (300uM) is added and the mixture is incubated for 30 minutes at room temperature for enzyme activation. The peptide substrate poly (Glu4-Tyr) 800uM is added and the mixture is incubated for 60 minutes at 30°C. An enzyme- coupled reaction produces a red-shifted fluorescent signal that is directly proportional to the amount of ADP in solution. Fluorescence emission is measured at 590nm with excitation at 535nm.

human EphB4 [2] = biological target: T1, human EphB4; test: Cellular autophosphorylation assay EphB4 (ELISA) in CHO-EphB4 cells; format: cell-based; design: stably transfected with myc-tagged full length human EphB4; expressed in transfected cells; host or cells: CHO (chinese hamster ovary); conditions: ephrinB2/Fc induced autophosphorylation
Method: CHO (chinese hamster ovary) cells were stably transfected with myc-tagged full length human EphB4. A cell line expressing EphB4 of which the phosphorylation was inducible with ephrinB2/Fc was identified and called CHO-EphB4. CHO-EphB4 cells were seeded into 96-well plates and cultured overnight in HAM-F12 medium supplemented with 10% fetal calf serum (FCS). Cells were washed once with PBS and different concentrations of compounds in HAM-F12 medium (final concentration of DMSO in the assay was 1%) were added. Cells were incubated at 37°C for 15 minutes. Ligand ephrinB2/Fc (R&D Systems, 1ug/mL final), which had been pre-clustered with anti-IgG Fc antibody (Jackson ImmunoResearch) for 45 minutes at room temperature, was added and cells were further incubated at 37°C for 45 minutes. Cells were lysed in 30uL lysis buffer per well (20mM Tris pH8, 150mM NaCl, 10% glycerol, 1% Triton X-100, 1mM Na3VO4, 1mM EDTA pH8, 1mM EGTA pH8, 1x protease inhibitor cocktail Sigma). ELISA 96-well plates (Nunc, Maxisorp) were coated with 100uL/well anti-c-myc antibody (Sigma) overnight at 4°C, blocked with 300uL/well 5% milk in TBS/0.005% Tween 20 (TBST) for 1 to 3 hours at room temperature, and incubated with 25uL/well cell lysate overnight at 4°C. ELISA plates were washed twice with TBST and incubated with 100uL/well antiphosphotyrosine HRP-coupled antibody (Upstate) diluted 1:1000 in 5% milk in TBST for 1.5 hour at room temperature and developed with 100uL/well BM BluePOD substrate (Roche). Absorbance was measured at 450nm.

ErbB2 = biological target: T2, ErbB2 (Homo sapiens, UniProt P04626); test: yeast growth assay, specificity profiling, ErbB2; format: cell-based; conditions: Table Y; legend not given
T2 construct: expressed in transfected cells; host or cells: yeast
Method: (§1) The yeast growth assay was performed as described in "Method for the identification and/or validation of receptor tyrosine kinase inhibitors" WO2005/040413, section "Modes for Carrying out the Invention", Experiment 1 and Experiment 2: Yeast cells carrying plasmids with the RTK of interest were grown in glucose containing medium (repressing expression). Cultures were diluted into galactose containing medium, which induces expression of the kinase. Expression of the kinase inhibits growth of the yeast cells, which allows for positive selection of kinase inhibitors restoring growth of cells.

PDGFRb = biological target: T3, PDGFRb (Homo sapiens, UniProt P09619); test: yeast growth assay, specificity profiling, PDGFRb; format: cell-based; conditions: Table Y; legend not given
T3 construct: expressed in transfected cells; host or cells: yeast
T3 sequence (P09619 33-1106): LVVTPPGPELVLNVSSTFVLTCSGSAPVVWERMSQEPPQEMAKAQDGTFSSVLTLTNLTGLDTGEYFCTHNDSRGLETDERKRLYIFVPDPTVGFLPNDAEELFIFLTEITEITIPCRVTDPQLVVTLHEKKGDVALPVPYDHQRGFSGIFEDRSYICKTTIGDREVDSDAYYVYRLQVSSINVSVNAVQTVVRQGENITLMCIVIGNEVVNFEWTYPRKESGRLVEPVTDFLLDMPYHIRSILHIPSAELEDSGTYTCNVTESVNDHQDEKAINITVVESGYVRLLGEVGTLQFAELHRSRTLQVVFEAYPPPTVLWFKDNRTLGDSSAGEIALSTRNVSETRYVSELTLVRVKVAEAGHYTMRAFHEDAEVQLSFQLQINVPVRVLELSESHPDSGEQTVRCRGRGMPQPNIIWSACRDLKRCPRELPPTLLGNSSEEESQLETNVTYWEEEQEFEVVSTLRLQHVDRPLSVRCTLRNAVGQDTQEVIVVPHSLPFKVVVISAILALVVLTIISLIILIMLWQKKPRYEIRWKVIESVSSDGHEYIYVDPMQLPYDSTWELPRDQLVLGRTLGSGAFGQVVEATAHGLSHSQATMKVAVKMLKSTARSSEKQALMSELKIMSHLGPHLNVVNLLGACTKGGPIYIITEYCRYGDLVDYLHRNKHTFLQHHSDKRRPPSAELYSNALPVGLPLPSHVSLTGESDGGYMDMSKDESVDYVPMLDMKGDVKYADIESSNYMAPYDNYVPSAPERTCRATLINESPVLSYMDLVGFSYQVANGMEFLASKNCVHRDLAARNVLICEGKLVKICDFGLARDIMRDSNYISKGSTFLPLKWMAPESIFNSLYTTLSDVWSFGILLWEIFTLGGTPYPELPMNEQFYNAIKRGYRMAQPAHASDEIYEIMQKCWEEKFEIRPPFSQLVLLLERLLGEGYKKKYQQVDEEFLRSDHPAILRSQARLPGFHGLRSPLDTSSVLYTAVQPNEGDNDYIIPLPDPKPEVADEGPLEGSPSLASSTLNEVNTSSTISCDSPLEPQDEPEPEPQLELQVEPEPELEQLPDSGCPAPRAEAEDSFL
Method: as §1

EGFR = biological target: T4, EGFR (Homo sapiens, UniProt P00533); test: yeast growth assay, specificity profiling, EGFR; format: cell-based; conditions: Table Y; legend not given
T4 construct: expressed in transfected cells; host or cells: yeast
T4 sequence (P00533 25-1210): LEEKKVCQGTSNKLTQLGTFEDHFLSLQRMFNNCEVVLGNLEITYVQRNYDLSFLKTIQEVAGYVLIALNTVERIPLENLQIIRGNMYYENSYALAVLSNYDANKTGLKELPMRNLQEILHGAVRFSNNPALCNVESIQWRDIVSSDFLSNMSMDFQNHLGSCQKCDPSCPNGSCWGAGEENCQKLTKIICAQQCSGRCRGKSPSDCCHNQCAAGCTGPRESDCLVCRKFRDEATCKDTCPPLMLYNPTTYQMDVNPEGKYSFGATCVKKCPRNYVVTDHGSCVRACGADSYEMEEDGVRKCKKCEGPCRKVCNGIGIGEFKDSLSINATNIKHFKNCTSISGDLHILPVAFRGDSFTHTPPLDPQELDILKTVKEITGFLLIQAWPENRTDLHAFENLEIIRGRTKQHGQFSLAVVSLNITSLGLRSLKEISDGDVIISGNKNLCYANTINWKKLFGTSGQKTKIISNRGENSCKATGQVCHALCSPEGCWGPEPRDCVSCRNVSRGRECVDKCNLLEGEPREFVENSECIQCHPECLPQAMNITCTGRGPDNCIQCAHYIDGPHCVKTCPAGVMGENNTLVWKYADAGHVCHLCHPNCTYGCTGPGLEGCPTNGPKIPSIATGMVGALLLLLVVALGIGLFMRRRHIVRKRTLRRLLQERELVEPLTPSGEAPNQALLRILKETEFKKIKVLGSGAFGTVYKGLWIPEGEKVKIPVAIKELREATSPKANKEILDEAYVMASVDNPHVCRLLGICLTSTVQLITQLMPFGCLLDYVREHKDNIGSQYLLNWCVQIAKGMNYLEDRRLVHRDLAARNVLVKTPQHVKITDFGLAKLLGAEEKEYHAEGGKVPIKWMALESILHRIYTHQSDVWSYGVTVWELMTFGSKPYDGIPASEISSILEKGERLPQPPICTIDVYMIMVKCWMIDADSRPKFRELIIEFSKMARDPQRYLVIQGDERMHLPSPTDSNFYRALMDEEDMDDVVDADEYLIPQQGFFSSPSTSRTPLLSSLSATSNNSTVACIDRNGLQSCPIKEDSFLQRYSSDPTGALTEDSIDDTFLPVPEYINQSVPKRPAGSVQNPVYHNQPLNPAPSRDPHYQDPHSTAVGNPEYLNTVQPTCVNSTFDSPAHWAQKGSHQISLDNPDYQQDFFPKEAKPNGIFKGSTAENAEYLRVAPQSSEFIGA
Method: as §1

c-Met = biological target: T5, c-Met (Homo sapiens, UniProt P08581); test: yeast growth assay, specificity profiling, c-Met; format: cell-based; conditions: Table Y; legend not given
T5 construct: expressed in transfected cells; host or cells: yeast
T5 sequence (P08581 25-1390): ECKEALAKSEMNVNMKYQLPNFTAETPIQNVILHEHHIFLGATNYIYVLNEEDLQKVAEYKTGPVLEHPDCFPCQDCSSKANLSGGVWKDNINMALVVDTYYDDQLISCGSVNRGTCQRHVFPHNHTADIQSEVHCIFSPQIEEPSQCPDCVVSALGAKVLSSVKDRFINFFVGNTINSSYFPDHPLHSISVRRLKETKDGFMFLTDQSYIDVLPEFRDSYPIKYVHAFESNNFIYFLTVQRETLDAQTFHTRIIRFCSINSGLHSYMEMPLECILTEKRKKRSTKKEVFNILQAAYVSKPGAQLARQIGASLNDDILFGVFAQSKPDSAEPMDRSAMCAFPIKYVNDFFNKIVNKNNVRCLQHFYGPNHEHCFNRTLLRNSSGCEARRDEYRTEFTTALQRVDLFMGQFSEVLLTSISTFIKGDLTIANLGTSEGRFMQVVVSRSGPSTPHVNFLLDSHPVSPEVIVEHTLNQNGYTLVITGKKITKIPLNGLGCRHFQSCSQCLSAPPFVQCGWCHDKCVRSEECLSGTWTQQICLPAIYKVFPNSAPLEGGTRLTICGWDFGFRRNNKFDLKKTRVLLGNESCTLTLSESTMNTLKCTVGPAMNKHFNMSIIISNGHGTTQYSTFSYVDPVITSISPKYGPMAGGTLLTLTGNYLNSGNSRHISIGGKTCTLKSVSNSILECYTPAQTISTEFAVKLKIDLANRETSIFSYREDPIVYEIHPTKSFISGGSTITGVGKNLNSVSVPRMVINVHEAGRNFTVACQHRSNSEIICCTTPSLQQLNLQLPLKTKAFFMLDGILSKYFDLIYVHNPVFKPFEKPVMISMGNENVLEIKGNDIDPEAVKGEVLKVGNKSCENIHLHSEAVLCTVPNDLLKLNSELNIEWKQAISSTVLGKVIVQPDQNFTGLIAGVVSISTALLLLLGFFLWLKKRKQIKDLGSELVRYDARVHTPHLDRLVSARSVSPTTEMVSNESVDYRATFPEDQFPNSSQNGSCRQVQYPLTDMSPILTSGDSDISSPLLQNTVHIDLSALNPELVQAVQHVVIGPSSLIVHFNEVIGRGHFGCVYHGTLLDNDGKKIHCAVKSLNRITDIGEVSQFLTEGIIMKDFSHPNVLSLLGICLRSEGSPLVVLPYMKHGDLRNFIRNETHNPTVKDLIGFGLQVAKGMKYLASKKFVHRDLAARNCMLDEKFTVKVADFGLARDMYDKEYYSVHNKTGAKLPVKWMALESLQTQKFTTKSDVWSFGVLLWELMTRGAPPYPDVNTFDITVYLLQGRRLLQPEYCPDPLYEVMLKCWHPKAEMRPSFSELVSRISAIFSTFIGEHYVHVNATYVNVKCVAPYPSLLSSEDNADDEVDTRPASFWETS
Method: as §1

InsR = biological target: T6, InsR (Homo sapiens, UniProt P06213); test: yeast growth assay, specificity profiling, InsR; format: cell-based; conditions: Table Y; legend not given
T6 construct: expressed in transfected cells; host or cells: yeast
T6 sequence (P06213 28-1382): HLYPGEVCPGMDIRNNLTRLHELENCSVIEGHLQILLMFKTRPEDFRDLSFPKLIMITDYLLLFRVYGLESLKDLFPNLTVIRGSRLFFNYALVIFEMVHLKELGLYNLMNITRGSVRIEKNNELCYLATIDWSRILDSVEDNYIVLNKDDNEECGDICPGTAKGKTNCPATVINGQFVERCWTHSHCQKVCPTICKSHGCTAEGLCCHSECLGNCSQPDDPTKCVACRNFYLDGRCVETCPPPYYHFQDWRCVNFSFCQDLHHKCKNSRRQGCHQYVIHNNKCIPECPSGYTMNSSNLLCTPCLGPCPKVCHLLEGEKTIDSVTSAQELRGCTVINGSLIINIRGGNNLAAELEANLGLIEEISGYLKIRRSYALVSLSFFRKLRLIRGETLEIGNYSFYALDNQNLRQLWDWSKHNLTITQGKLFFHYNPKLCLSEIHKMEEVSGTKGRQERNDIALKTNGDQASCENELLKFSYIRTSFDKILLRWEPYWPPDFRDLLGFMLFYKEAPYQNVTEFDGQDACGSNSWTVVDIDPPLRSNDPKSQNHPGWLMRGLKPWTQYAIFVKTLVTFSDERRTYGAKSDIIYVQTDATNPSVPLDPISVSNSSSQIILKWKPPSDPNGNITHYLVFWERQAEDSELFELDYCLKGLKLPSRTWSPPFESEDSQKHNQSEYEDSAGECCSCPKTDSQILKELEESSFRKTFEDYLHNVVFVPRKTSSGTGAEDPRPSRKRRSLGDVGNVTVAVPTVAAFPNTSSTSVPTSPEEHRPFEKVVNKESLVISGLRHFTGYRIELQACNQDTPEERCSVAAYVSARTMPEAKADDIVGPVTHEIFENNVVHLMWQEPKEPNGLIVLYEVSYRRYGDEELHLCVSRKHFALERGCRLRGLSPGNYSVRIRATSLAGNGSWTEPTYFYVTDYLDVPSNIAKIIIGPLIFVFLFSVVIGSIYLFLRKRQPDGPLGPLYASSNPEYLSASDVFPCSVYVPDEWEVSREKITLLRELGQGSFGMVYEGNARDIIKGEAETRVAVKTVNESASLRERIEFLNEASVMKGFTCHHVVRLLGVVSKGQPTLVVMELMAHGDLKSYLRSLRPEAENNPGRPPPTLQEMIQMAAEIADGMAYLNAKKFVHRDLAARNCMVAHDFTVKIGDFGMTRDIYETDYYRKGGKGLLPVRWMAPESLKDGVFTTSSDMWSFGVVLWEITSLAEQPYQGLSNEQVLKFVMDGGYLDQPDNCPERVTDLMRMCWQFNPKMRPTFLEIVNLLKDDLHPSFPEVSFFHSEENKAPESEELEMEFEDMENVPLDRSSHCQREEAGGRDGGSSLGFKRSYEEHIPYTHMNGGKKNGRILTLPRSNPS
Method: as §1

VEGFR-2 = biological target: T7, VEGFR-2 (Homo sapiens, UniProt P35968); test: yeast growth assay, specificity profiling, VEGFR-2; format: cell-based; conditions: Table Y; legend not given
T7 construct: expressed in transfected cells; host or cells: yeast
Method: as §1

IGF1R = biological target: T8, IGF1R (Homo sapiens, UniProt P08069); test: yeast growth assay, specificity profiling, IGF1R; format: cell-based; conditions: Table Y; legend not given
T8 construct: expressed in transfected cells; host or cells: yeast
Method: as §1

VEGFR-1 = biological target: T9, VEGFR-1 (Homo sapiens, UniProt P17948); test: yeast growth assay, specificity profiling, VEGFR-1; format: cell-based; conditions: Table Y; legend not given
T9 construct: expressed in transfected cells; host or cells: yeast
Method: as §1

SMILES	pIC50 (human EphB4 [1])	other results
Cc1ccc(Nc2nc(NCc3ccco3)nc3c2cnn3C)c(C)c1	5.00 to 6.00	–
CCCNc1nc(Nc2ccc(Cl)cc2C)c2cnn(C)c2n1	5.00 to 6.00	–
Cc1cc(Cl)ccc1Nc1nc(NC2CCCC2)nc2c1cnn2C	5.00 to 6.00	pIC50 (human EphB4 [2]): 5.00 to 6.00
Cc1ccccc1Nc1nc(Nc2ccccc2)nc2c1cnn2C	5.00 to 6.00	–
Cc1ccccc1Nc1nc(Nc2ccc(F)cc2)nc2c1cnn2C	5.00 to 6.00	–
CCCNc1nc(Nc2ccccc2C)c2cnn(C)c2n1	> 6.00	–
CCCCNc1nc(Nc2ccccc2C)c2cnn(C)c2n1	> 6.00	pIC50 (human EphB4 [2]): > 6.00
COCCNc1nc(Nc2ccccc2C)c2cnn(C)c2n1	> 6.00	–
COCCCNc1nc(Nc2ccccc2C)c2cnn(C)c2n1	> 6.00	–
C=CCNc1nc(Nc2ccccc2C)c2cnn(C)c2n1	> 6.00	–
Cc1ccccc1Nc1nc(NC2CCCC2)nc2c1cnn2C	> 6.00	–
Cc1ccccc1Nc1nc(NCc2ccccc2)nc2c1cnn2C	5.00 to 6.00	–
Cc1ccccc1Nc1nc(NCc2ccccc2Cl)nc2c1cnn2C	5.00 to 6.00	pIC50 (human EphB4 [2]): > 6.00
Cc1ccccc1Nc1nc(NCc2ccco2)nc2c1cnn2C	> 6.00	pIC50 (human EphB4 [2]): 5.00 to 6.00
Cc1ccccc1Nc1nc(N(C)C)nc2c1cnn2C	5.00 to 6.00	–
Cc1ccccc1Nc1nc(N2CCCC2)nc2c1cnn2C	5.00 to 6.00	–
CCNc1nc(Nc2ccccc2C)c2cnn(C)c2n1	> 6.00	pIC50 (human EphB4 [2]): > 6.00
CNc1nc(Nc2ccccc2C)c2cnn(C)c2n1	> 6.00	–
Cc1ccccc1Nc1nc(N2CCOCC2)nc2c1cnn2C	5.00 to 6.00	–
CCN(CC)CCNc1nc(Nc2ccccc2C)c2cnn(C)c2n1	> 6.00	–
Cc1ccccc1Nc1nc(N2CCN(C(=O)c3ccco3)CC2)nc2c1cnn2C	5.00 to 6.00	–
CCNc1nc(Nc2ccc(C)cc2C)c2cnn(C)c2n1	5.00 to 6.00	–
CNc1nc(Nc2ccc(C)cc2C)c2cnn(C)c2n1	5.00 to 6.00	–
CNc1nc(Nc2ccc(Cl)cc2C)c2cnn(C)c2n1 [[drawing]]	–	Specificity profiling in the yeast growth assay: ErbB2 (ErbB2): 0; Specificity profiling in the yeast growth assay: PDGFRb (PDGFRb): 0; Specificity profiling in the yeast growth assay: EGFR (EGFR): 0; Specificity profiling in the yeast growth assay: c-Met (c-Met): 0; Specificity profiling in the yeast growth assay: InsR (InsR): 0; Specificity profiling in the yeast growth assay: VEGFR-2 (VEGFR-2): 0; Specificity profiling in the yeast growth assay: IGF1R (IGF1R): 0; Specificity profiling in the yeast growth assay: VEGFR-1 (VEGFR-1): 0
CNc1nc(Nc2ccc(Cl)cc2C)c2cnn(C)c2n1 [drawing 56]	5.00 to 6.00	pIC50 (human EphB4 [2]): < 5.00
